From US10054581B1, “Inhibitors of notch signaling pathway and use thereof in treatment of cancers” (Ecole Polytechnique Federale de Lausanne (EPFL), priority 2011, dated 2018)
Entries after “also recorded” stand apart in the source; their conditions may differ.

What was measured:
[1] = test system: active form of Notch1 (NICD); experiment: NICD Western blot (VAL1744) in DL4:N1 HeLa coculture; assay type: cell-based, human; conditions: DL4- and N1-HeLa coculture, DAPT 10 μM, 24 hours
Description: Cells were lysed in RIPA buffer (50 mM Tris.Cl, pH 7.5, 150 mM NaCl, 1% nonidet P-40, 0.5% sodium deoxycholate and 0.1% SDS) for 30 minutes at 4° C. Lysed cells were centrifuged to remove the debris at 14000 rpm at 4° C. Supernatant was transferred to a new eppendorf tube. The protein concentration was determined by Bradford assay using spectrophotometer (Ultrospec 3000 pro). 40 μg of protein were denatured in 1×SDS gel loading buffer (100 mM Tris.Cl, pH 6.8, 200 mM DTT, 4% SDS, 0.2% bromophenol, 20% glycerol) by heating at 99° C. for 5 minutes. Denatured protein samples were stored on ice until loading on to the acrylamide gel. The samples were run on 8% or 10% acrylamide gel in Tris-glycine electrophoresis buffer (25 mM Tris, 250 mM glycine, 0.1% SDS). […]
For immunoblotting, membranes were blocked with 5% milk and incubated overnight with primary antibodies at 4° C. […] Signal was detected with Super Signal West chemiluminescent substrate (Thermo Scientific, catalog number 34077).
To assess the Notch pathway activation potential of the stable cell lines, DL4 and N1 stable HeLa cells (DL4-HeLa and N1-HeLa, respectively) were cocultured in 1:1 ratio in a 6-well plate and grown to confluency. […] On the other hand, in the absence of ligand (DL4-HeLa cells) or in the presence of GSI (DAPT) NICD levels were not detected, indicating a loss of Notch signalling (data not shown). […]

[2] = test system: Wnt signalling (β-catenin-TCF/LEF driven luciferase); experiment: Wnt signalling TOP-luciferase assay in HeLa cells; assay type: cell-based; conditions: HeLa cells co-transfected with β-catenin and TOP-luciferase
Excerpt: One of the concerns about the activity of the chemical compound 6-(4-Tert-Butylphenoxy)Pyridin-3-Amine (I3) is its specificity towards the Notch signalling pathway. In order to test whether 6-(4-Tert-Butylphenoxy)Pyridin-3-Amine (I3) could also block other developmental pathways, Applicants have tested its ability to block the Wnt and Hedgehog signalling pathways. In summary, to measure Wnt signalling, HeLa cells were transfected with a plasmid containing a promoter consisting of TCF/LEF binding sites and thereby driving the expression of a luciferase gene (TOP-luciferase). To activate the Wnt pathway, a plasmid encoding for β-catenin was co-transfected into HeLa cells. The co-transfected cells were incubated in the presence or absence of the 6-(4-Tert-Butylphenoxy)Pyridin-3-Amine (I3) chemical compound. Transient introduction of β-catenin leads to an upregulation of Wnt signalling as measured by β-catenin-TCF/LEF driven luciferase activity.

[3] = test system: MMTV-ErbB2 mouse mammary tumors; experiment: MMTV-ErbB2 mammary tumor transplantation in FVB mice; assay type: in vivo; conditions: 25 mg/kg on alternate days, established tumors; preliminary results
Description: FIGS. 9A-9B show 6-(4-Tert-Butylphenoxy)Pyridin-3-Amine (I3) treatment blocks MMTV-ErbB2 mouse mammary tumors. […] Tubulin served as a loading control. […] Tumor formation was monitored on a regular basis. Once the tumor developed to a volume of 100-300 mm^3′ mice were treated with oil (n=2) or 25 mg/kg of 6-(4-Tert-Butylphenoxy)Pyridin-3-Amine (I3) (n=2). Tumor volume was measured every 6-7 days.
Primary MMTV-ErbB2/Neu mammary tumors were harvested from the mice and a single cell suspension was prepared. 1×10^6 primary tumor cells were suspended in 50 μl of 1×PBS and kept on ice. Three weeks old recipient FVB mice were cleared of their endogenous epithelium and tumor cells were injected into the empty fat pad. Tumor development in the recipient mice was monitored and tumor volumes were measured using digital caliper. Tumor volumes were calculated using following formula: […]length×(width)^2. Once the tumor reached a volume of about 100 mm^3, recipient mice were treated with oil or 25 mg/kg of I3 on alternate days.
In human breast cancer, high levels of Notch1 and Jagged1 proteins correlated with a poor survival of breast cancer patients. In addition, activation of Notch signalling in human breast cancer also facilitates bone and lung metastasis. […] The tumor volume was measured and recorded on regular intervals.

Compound | NICD levels (Western blot) [1] | Wnt pathway activation [2] | tumor volume / tumor progression [3]
C[C@H](NC(=O)Cc1cc(F)cc(F)c1)C(=O)N[C@H](C(=O)OC(C)(C)C)c1ccccc1 [DAPT, N—[N-(3,5-difluorophenacetyl-Lalanyl)]-(S)-phenylglycine t-butyl ester, reference compound] | can be blocked by DAPT treatment |  | 
CC(C)(C)c1ccc(Oc2ccc(N)cn2)cc1 [I3, 6-(4-Tert-Butylphenoxy)Pyridin-3-Amine] |  | does not block the Wnt pathway activation | caused significant tumor growth retardation; also recorded: exhibited a slow tumor progression compared to oil treated mice; also recorded: led to a block in tumor progression in the mice
